Source: ChEMBL document CHEMBL1153048, “Novel and potent inhibitors of stearoyl-CoA desaturase-1. Part I: Discovery of 3-(2-hydroxyethoxy)-4-methoxy-N-[5-(3-trifluoromethylbenzyl)thiazol-2-yl]benzamide” (Bioorg Med Chem Lett, 2009)

Legend:
[1] = biological target: T1, Acyl-CoA 6-desaturase (Homo sapiens) (UniProt O95864); assay: Inhibition of delta-6 desaturase in human microsomes assessed as conversion of [14C]linolenic acid to [14C]stearidonic acid at 10 uM; details: Microsome
T1 sequence (whole entry): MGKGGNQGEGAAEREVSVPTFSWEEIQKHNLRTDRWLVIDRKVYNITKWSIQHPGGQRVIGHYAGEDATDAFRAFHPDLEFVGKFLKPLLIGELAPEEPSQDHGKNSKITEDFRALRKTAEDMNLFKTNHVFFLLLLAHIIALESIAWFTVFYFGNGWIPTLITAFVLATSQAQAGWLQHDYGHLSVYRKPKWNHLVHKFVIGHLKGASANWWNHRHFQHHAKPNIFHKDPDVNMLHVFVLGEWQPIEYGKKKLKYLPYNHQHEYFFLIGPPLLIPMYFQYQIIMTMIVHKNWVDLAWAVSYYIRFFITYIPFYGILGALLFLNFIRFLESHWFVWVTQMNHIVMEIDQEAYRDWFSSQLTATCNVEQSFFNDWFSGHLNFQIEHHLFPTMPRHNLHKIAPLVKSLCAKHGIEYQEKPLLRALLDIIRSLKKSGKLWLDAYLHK

[2] = Half life in C57BL/6J mouse at 5 mg/kg; format: ADME, organism-based; design: dose 5 mg/kg; details: in vivo
[3] = Volume of distribution in C57BL/6J mouse at 5 mg/kg, iv measured up to 8 hrs; format: ADME, organism-based; design: dose 5 mg/kg, route intravenous; details: in vivo
[4] = AUC (0 to 8 hrs) in C57BL/6J mouse at 5 mg/kg, iv measured up to 8 hrs; format: ADME, organism-based; design: time < 8 hr, dose 5 mg/kg, route intravenous; details: plasma
Mus musculus [5] = assay: Inhibition of SCD1 in db/db mouse liver assessed as conversion of [14C]stearate to [14C]oleate administered through oral gavage; format: functional; details: read-out: ID50 (the source's name)
Mus musculus [6] = assay: AUC in C57BL/6J mouse at 5 mg/kg, iv measured up to 8 hrs; details: in vivo
Acyl-CoA desaturase 1 = biological target: T2, Acyl-CoA desaturase 1 (Mus musculus, UniProt P13516); assay: Inhibition of SCD1 in mouse microsomes assessed as conversion of [14C]stearate to [14C]oleate after 60 mins; design: species or system Microsome
T2 sequence (P13516 whole entry): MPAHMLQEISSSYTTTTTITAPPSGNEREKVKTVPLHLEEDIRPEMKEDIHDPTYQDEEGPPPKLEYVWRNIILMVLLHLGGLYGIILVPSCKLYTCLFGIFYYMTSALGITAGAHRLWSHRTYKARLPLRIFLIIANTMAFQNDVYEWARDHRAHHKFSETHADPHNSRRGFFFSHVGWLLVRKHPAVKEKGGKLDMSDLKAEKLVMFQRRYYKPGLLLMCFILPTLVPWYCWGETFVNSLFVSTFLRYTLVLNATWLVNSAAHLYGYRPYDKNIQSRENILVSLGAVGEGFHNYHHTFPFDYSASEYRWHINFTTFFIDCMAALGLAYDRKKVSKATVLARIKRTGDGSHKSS

Stearoyl-CoA desaturase [7] = biological target: T3, Stearoyl-CoA desaturase (Homo sapiens, UniProt O00767); assay: Inhibition of SCD1 in human microsomes assessed as conversion of [14C]stearate to [14C]oleate after 60 mins; design: species or system Microsome
T3 sequence (O00767 whole entry): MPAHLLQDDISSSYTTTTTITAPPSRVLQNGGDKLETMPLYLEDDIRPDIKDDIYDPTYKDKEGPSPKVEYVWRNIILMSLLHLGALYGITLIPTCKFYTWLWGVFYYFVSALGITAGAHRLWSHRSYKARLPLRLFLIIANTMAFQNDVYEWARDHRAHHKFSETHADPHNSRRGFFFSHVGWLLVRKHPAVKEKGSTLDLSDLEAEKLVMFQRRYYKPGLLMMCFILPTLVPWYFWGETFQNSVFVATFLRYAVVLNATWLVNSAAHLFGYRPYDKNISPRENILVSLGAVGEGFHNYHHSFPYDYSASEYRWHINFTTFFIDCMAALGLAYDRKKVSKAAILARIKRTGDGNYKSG

Stearoyl-CoA desaturase [8] = biological target: T3, Stearoyl-CoA desaturase; assay: Inhibition of human SCD1 expressed in HEK293A cells assessed as conversion of [14C]stearate to [14C]oleate; format: cell-based, HEK293-A
[9] = Cmax in C57BL/6J mouse at 20 mg/kg, po measured up to 8 hrs; format: ADME, organism-based; design: dose 20 mg/kg, route oral; details: in vivo
[10] = Half life in C57BL/6J mouse at 20 mg/kg, po measured up to 8 hrs; format: ADME, organism-based; design: time < 8 hr, dose 20 mg/kg, route oral; details: in vivo
[11] = Tmax in C57BL/6J mouse at 20 mg/kg, po measured up to 8 hrs; format: ADME, organism-based; design: dose 20 mg/kg, route oral; details: in vivo
[12] = AUC (0 to 8 hrs) in C57BL/6J mouse at 20 mg/kg, po measured up to 8 hrs; format: ADME, organism-based; design: time < 8 hr, dose 20 mg/kg, route oral; details: plasma
[13] = Oral bioavailability in C57BL/6J mouse at 20 mg/kg measured up to 8 hrs; format: ADME, organism-based; details: in vivo
[14] = Clearance in C57BL/6J mouse at 5 mg/kg, iv measured up to 8 hrs; format: ADME, organism-based; design: dose 5 mg/kg, route intravenous; details: in vivo

Compound	IC50 (Acyl-CoA desaturase 1)	IC50 (Stearoyl-CoA desaturase [7])	IC50 (Stearoyl-CoA desaturase [8])	further results
COc1ccc(C(=O)Nc2ncc(Cc3cccc(C(F)(F)F)c3)s2)cc1OCCO				inhibition [1]: 15%; half-life [2]: 0.9 h; Vd [3]: 0.42 L/kg; AUC(0-t) at 8 h [4]: 17000 ng·h/mL; ED50 (Mus musculus [5]): 2 mg/kg; AUC (Mus musculus [6]): 4700 ng·h/mL
COc1ccc(C(=O)Nc2ncc(Cc3ccc(C)c(F)c3)s2)cc1OCCO	22 nM	82 nM	639 nM	
COc1ccc(C(=O)Nc2ncc(Cc3cccc(C(F)(F)F)c3)s2)cc1OCCCO		> 10000 nM		
COc1ccc(C(=O)Nc2ncc(Cc3ccc(F)c(Cl)c3)s2)cc1OCCO	1 nM	2 nM	17 nM	Cmax [9]: 3600 ng/mL; AUC at 8 h [10]: 14000 ng·h/mL; half-life [11]: 2.1 h; Tmax [12]: 1 h; bioavailability [13]: 38%; ED50 (Mus musculus [5]): 2 mg/kg
COc1ccc(C(=O)Nc2ncc(Cc3cccc(F)c3)s2)cc1OCCO	2 nM	11 nM	34 nM	
COc1cc(C(=O)Nc2ncc(Cc3cccc(C(F)(F)F)c3)s2)ccc1OCCN1CCOCC1	528 nM	1400 nM		inhibition [1]: < 5%
COc1ccc(C(=O)Nc2ncc(Cc3cccc(C(F)(F)F)c3)s2)cc1		1220 nM		
COc1ccc(C(=O)Nc2ncc(Cc3cccc(C(F)(F)F)c3)s2)cc1OCC(C)O (stereo not drawn)	2170 nM	2160 nM		
COc1ccc(C(=O)Nc2ncc(Cc3cccc(C(F)(F)F)c3)s2)cc1OCC(O)CO (stereo not drawn)		> 10000 nM		
Cc1ccc(C(=O)Nc2ncc(Cc3cccc(C(F)(F)F)c3)s2)cc1C	8220 nM			
COc1ccc(C(=O)Nc2ncc(Cc3ccc(F)c(F)c3)s2)cc1OCCO	2 nM	9 nM	34 nM	
COc1ccc(/C=C/C(=O)Nc2ncc(Cc3cccc(C(F)(F)F)c3)s2)cc1	2 nM	3 nM		inhibition [1]: 21%; half-life [2]: 0.4 h; clearance [14]: 32 mL/min/kg; Vd [3]: 0.3 L/kg; AUC(0-t) at 8 h [4]: 2700 ng·h/mL
COc1ccc(C(=O)Nc2ncc(Cc3cc(C(F)(F)F)cc(C(F)(F)F)c3)s2)cc1OCCO		0.2 nM	26 nM	
COc1ccc(C(=O)Nc2ncc(Cc3cccc(Cl)c3)s2)cc1OCCO	1 nM	4 nM	9 nM	Cmax [9]: 1800 ng/mL; AUC at 8 h [10]: 10000 ng·h/mL; half-life [11]: 5.4 h; Tmax [12]: 2 h; bioavailability [13]: 12%; ED50 (Mus musculus [5]): 1 mg/kg
O=C(Nc1ncc(Cc2cccc(C(F)(F)F)c2)s1)c1ccc2ccccc2c1	> 10000 nM			
COc1cc(C(=O)Nc2ncc(Cc3cccc(C(F)(F)F)c3)s2)ccc1OCCO	3 nM	10 nM		inhibition [1]: 16%; half-life [2]: 1.4 h; clearance [14]: 3.4 mL/min/kg; Vd [3]: 0.42 L/kg; AUC(0-t) at 8 h [4]: 24000 ng·h/mL; Cmax [9]: 70 ng/mL; half-life [10]: 1.3 h; Tmax [11]: 0.5 h; AUC(0-t) at 8 h [12]: 150 ng·h/mL; bioavailability [13]: 0.2%
COc1ccc(C(=O)Nc2ncc(Cc3cc(Cl)ccc3Cl)s2)cc1OCCO	9 nM	125 nM	429 nM	
COc1ccc(C(=O)Nc2ncc(Cc3cccc(C(F)(F)F)c3)s2)cc1OC	76 nM	145 nM		inhibition [1]: < 5%
COc1ccc(C(=O)Nc2ncc(Cc3ccc(F)c(C(F)(F)F)c3)s2)cc1OCCO	0.2 nM	0.6 nM	8 nM	Cmax [9]: 550 ng/mL; AUC at 8 h [10]: 2000 ng·h/mL; half-life [11]: 1.3 h; Tmax [12]: 1.3 h; bioavailability [13]: 3%; ED50 (Mus musculus [5]): 5 mg/kg
COc1cccc(C(=O)Nc2ncc(Cc3cccc(C(F)(F)F)c3)s2)c1	193 nM	915 nM		inhibition [1]: 53%
COc1ccc(C(=O)Nc2ncc(Cc3cccc(C(C)(C)C)c3)s2)cc1OCCO	1310 nM			
COc1cc(C(=O)Nc2ncc(Cc3cccc(C(F)(F)F)c3)s2)ccc1OCC(=O)O		4380 nM		inhibition [1]: < 5%
COc1ccc2cc(C(=O)Nc3ncc(Cc4cccc(C(F)(F)F)c4)s3)ccc2c1	5 nM	9 nM		inhibition [1]: < 5%
COc1ccc(C(=O)Nc2ncc(Cc3ccc(Cl)c(Cl)c3)s2)cc1OCCO	0.8 nM	1 nM	13 nM	
COc1ccc(C(=O)Nc2ncc(Cc3cccc(C(F)(F)F)c3)s2)cc1OCC(=O)O	> 10000 nM			
COc1ccc(C(=O)Nc2ncc(Cc3cccc(OC(F)(F)F)c3)s2)cc1OCCO	3 nM	4 nM	59 nM	Cmax [9]: 1200 ng/mL; AUC at 8 h [10]: 4900 ng·h/mL; half-life [11]: 1.5 h; Tmax [12]: 1.3 h; bioavailability [13]: 8%; ED50 (Mus musculus [5]): 8 mg/kg
COc1ccc(C(=O)Nc2ncc(Cc3cc(F)cc(F)c3)s2)cc1OCCO	0.1 nM	2.9 nM	116 nM	
COc1ccc(C(=O)Nc2ncc(Cc3cc(Cl)cc(Cl)c3)s2)cc1OCCO	0.7 nM	1 nM	13 nM	
COc1ccc(C(=O)Nc2ncc(Cc3cccc(C(F)(F)F)c3)s2)cc1OCC(C)(C)O	> 10000 nM			
